# According to patent US20030232409A1, “Immortal porcine cells” (Regents of the University of Minnesota, priority 2002, published 2003):
# Tests used:
# PEGE1 cells = test: Short-circuit current (Isc) of cell monolayers in Ussing chambers, immortalized cells; type: cell-based, porcine; details: for Mean 8 cpt cAMP-stimulated NPPB-sensitive Isc / Mean 8 cpt cAMP-stimulated Isc: n=6
# Experimental: (§1) PEGE primary cells, isolated and cultured as previously described (Deachapunya and O'Grady, J. of Physiology, 508 (Part 1), 31-47 (1998)), and PEGE1 cells were used. Transepithelial resistance of cell monolayers was measured using the EVOM epithelial voltohmmeter coupled to Ag/AgCl “chopstick” electrodes (World Precision Instrument, New Haven, Conn.). After 10 days, the confluent culture inserts were mounted in Ussing Chambers, bathed on both sides with standard porcine Ringer solution which was maintained at 37° C., and bubbled with 95% O2 and 5% CO2. Transepithelial potential difference and Isc were measured with the use of voltage-clamp circuitry from JWT Engineering (Overland Park, Kans.). The data from the voltage clamp experiments was digitized, stored and analyzed using Workbench data acquisition software (Kent Scientific Corporation, Litchfield, Conn.) and recorded with a Compaq pentium microcomputer.
# (§2) All values are presented as means±SEM. n is the number of monolayers. The differences between control and treatment means were analyzed using a t-test for paired or unpaired means where appropriate. A value of p<0.05 was considered statistically significant.
# PEGE primary cells [1] = test: Short-circuit current (Isc) of cell monolayers in Ussing chambers, primary cells; type: cell-based, porcine
# Experimental: as §1, §2
# PEGE primary cells [2] = details: serum-containing conditions, Deachapunya and O'Grady 1998; cited from earlier work
compound,measurement,setting,value
NC(=NCc1ccccc1)NC(=O)c1nc(Cl)c(N)nc1N [benzamil],Mean benzamil-sensitive Isc,"PEGE1 cells; passage 19, 5 μM benzamil, n=15",1.6 μA
same,Mean benzamil-sensitive Isc,"PEGE1 cells; passage 44-51, 5 μM benzamil, n=15",1.7 μA
same,Mean benzamil-sensitive Isc,"PEGE primary cells [1]; passage 4, 5 μM benzamil, n=12",0.5 μA
CCCCC[C@H](O)/C=C/[C@H]1[C@H](O)CC(=O)[C@@H]1C/C=C\CCCC(=O)O [PGE2],Mean PGE2-stimulated Isc,"PEGE1 cells; passage 19, 3 μM PGE2, n=6",69.0 μA
same,Mean PGE2-stimulated Isc,"PEGE1 cells; passage 44-51, 3 μM PGE2, n=5",35.0 μA
same,Mean PGE2-stimulated Isc,"PEGE primary cells [1]; passage 4, 3 μM PGE2, n=5",40.3 μA
same,Effect of stimulation on Isc,PEGE primary cells [2],increase in Isc
COc1ccc2c(c1)c(CC(=O)O)c(C)n2C(=O)c1ccc(Cl)cc1 [indomethecin],Mean indomethecin-sensitive Isc,"PEGE1 cells; passage 19, 10 μM indomethecin, n=15",5.0 μA
same,Mean indomethecin-sensitive Isc,"PEGE1 cells; passage 44-51, 10 μM indomethecin, n=14",0.6 μA
same,Mean indomethecin-sensitive Isc,"PEGE primary cells [1]; passage 4, 10 μM indomethecin, n=12",3.4 μA
"O=C(O)c1cc([N+](=O)[O-])ccc1NCCCc1ccccc1 [NPPB, 5-nitro-2-(3phenylpropylamino) benzoic acid]",Mean PGE2-stimulated NPPB-sensitive Isc,"PEGE1 cells; passage 19, 100 μM NPPB after 3 μM PGE2, n=6",33.4 μA
same,Mean 8 cpt cAMP-stimulated NPPB-sensitive Isc,"PEGE1 cells; passage 19, 100 μM NPPB after 50 μM 8 cpt cAMP",24.3 μA
same,Mean PGE2-stimulated NPPB-sensitive Isc,"PEGE1 cells; passage 44-51, 100 μM NPPB after 3 μM PGE2, n=5",12.5 μA
same,Mean 8 cpt cAMP-stimulated NPPB-sensitive Isc,"PEGE1 cells; passage 44-51, 100 μM NPPB after 50 μM 8 cpt cAMP",14.5 μA
same,Mean PGE2-stimulated NPPB-sensitive Isc,"PEGE primary cells [1]; passage 4, 100 μM NPPB after 3 μM PGE2, n=5",24.9 μA
same,Mean 8 cpt cAMP-stimulated NPPB-sensitive Isc,"PEGE primary cells [1]; passage 4, 100 μM NPPB after 50 μM 8 cpt cAMP, n=6",17.6 μA
same,Effect on PGE2- or cAMP-stimulated increase in Isc,PEGE primary cells [2],blocked
"Nc1ncnc2c1nc(Sc1ccc(Cl)cc1)n2[C@@H]1O[C@@H]2COP(=O)(O)O[C@H]2[C@H]1O [8 cpt cAMP, 8(4-chlorophenylthiol) cAMP]",Mean 8 cpt cAMP-stimulated Isc,"PEGE1 cells; passage 19, 50 μM 8 cpt cAMP",33.2 μA
same,Mean 8 cpt cAMP-stimulated Isc,"PEGE1 cells; passage 44-51, 50 μM 8 cpt cAMP",15.6 μA
same,Mean 8 cpt cAMP-stimulated Isc,"PEGE primary cells [1]; passage 4, 50 μM 8 cpt cAMP, n=6",25.9 μA
